Reference: ChEMBL document CHEMBL6134830, “Naturally inspired chimeric quinolone derivatives to reverse bacterial drug resistance” (Eur J Med Chem, 2025)
≈ marks a conversion by molar mass, not a printed value. Calls of active or inactive are those of the source. No cut-off for these calls is given here. Numbered stars: 1 amine (or outer) side, 2 acyl side, 3 side chain; on linkers, the order of the positions; unused ones are H or OH. Bridge positions count the residues as written; N and C are the ends. Square brackets hold non-standard residues; d marks the D form. Peptide text beside a SMILES is read from it. * marks the point of attachment. X1 = O=C(O)c1cn(C2CC2)c2cc(N3CCN(*)CC3)c(F)cc2c1=O; NH(CH2)11CH3 = CCCCCCCCCCCCN*; Suc = O=C(CCC(=O)[*:2])[*:1]; X2 = CC[C@H](C)CCCCC(=O)*; dDab = NCC[C@@H](N)C(=O)O; Dab = NCC[C@H](N)C(=O)O

Assays:
Acinetobacter baumannii = assay: Antimicrobial activity against Acinetobacter baumannii ATCC 19606 assessed as inhibition of bacterial growth measured after 20 hrs by CLSI protocol based Muller Hinton broth assay; assay type: functional
[1] = Hemolytic activity in Sprague-Dawley rat Red blood cells at 100 ug/ml incubated for 1 hrs by absorbance based analysis; assay type: toxicity, cell-based; details: erythrocyte, dose 100 µg/ml
Staphylococcus aureus [2] = assay: Antimicrobial activity against Staphylococcus aureus ATCC 25923 assessed as inhibition of bacterial growth measured after 20 hrs by CLSI protocol based Muller Hinton broth assay; assay type: functional
Enterococcus faecalis = assay: Antimicrobial activity against Enterococcus faecalis ATCC 19433 assessed as inhibition of bacterial growth measured after 20 hrs by CLSI protocol based Muller Hinton broth assay; assay type: functional
Pseudomonas aeruginosa = assay: Antimicrobial activity against Pseudomonas aeruginosa ATCC 27853 assessed as inhibition of bacterial growth measured after 20 hrs by CLSI protocol based Muller Hinton broth assay; assay type: functional
Enterococcus gallinarum = assay: Antimicrobial activity against Enterococcus gallinarum ATCC 49573 assessed as inhibition of bacterial growth measured after 20 hrs by CLSI protocol based Muller Hinton broth assay; assay type: functional
L929 [3] = assay: Cytotoxicity against mouse L929 cells assessed as reduction in cell viability at 25 microg/mL incubated for 24 hrs by MTT assay; assay type: toxicity, cell-based; details: l929, 24 h, dose 25 µg/ml
Staphylococcus aureus [4] = assay: Antimicrobial activity against Methicillin-resistant Staphylococcus aureus ATCC 43300 assessed as inhibition of bacterial growth measured after 20 hrs by CLSI protocol based Muller Hinton broth assay; assay type: functional
Escherichia coli [5] = assay: Antimicrobial activity against Escherichia coli ATCC 25922 assessed as inhibition of bacterial growth measured after 20 hrs by CLSI protocol based Muller Hinton broth assay; assay type: functional
Cell membrane [6] = assay: Disruption of cell membrane in methicillin-resistant Staphylococcus aureus assessed as PI-positive bacteria at 8 times MIC measured after 30 mins by PI staining based flow cytometry analysis (reference value: 7.49 %); assay type: subcellular
[7] = Hemolytic activity in Sprague-Dawley rat Red blood cells at 200 ug/ml incubated for 1 hr by absorbance based analysis; assay type: toxicity, cell-based; details: erythrocyte, dose 200 µg/ml
L929 [8] = assay: Cytotoxicity against mouse L929 cells assessed as reduction in cell viability at 100 microg/mL incubated for 24 hrs by MTT assay; assay type: toxicity, cell-based; details: l929, 24 h, dose 100 µg/ml
Staphylococcus aureus [9] = assay: Antimicrobial activity against Methicillin-resistant Staphylococcus aureus assessed as reduction in bacterial growth at 4 times MIC measured for 0.5 to 24 hrs by time-kill kinetics assay; assay type: functional, organism-based; details: time 0.5-24 hrs
Staphylococcus aureus [10] = assay: Antibacterial activity against methicillin-resistant Staphylococcus aureus infected in ICR mouse model of subcutaneous abscess assessed as effect on skin abscesses at 25 mg/kg, sc measured at 48 hrs post-injection; assay type: functional, organism-based
Cell membrane [11] = assay: Disruption of cell membrane in methicillin-resistant Staphylococcus aureus at 4 times MIC measured after 4 hrs by scanning electron microscopic analysis; assay type: subcellular
Mus musculus [12] = assay: Anti-inflammatory activity against subcutaneous abscess ICR mouse model infected with methicillin-resistant Staphylococcus aureus assessed as reduction in TNF-alpha level at 25 mg/kg, sc measured at 48 hrs post-injection by ELISA method; assay type: functional, organism-based
Staphylococcus aureus [13] = assay: Antibacterial activity against methicillin-resistant Staphylococcus aureus infected in ICR mouse model of subcutaneous abscess assessed as reduction in infiltration of inflammatory cells at 25 mg/kg, sc measured at 48 hrs post-injection by H and E/Masson staining based analysis; assay type: functional, organism-based
[14] = Toxicity in ICR mouse assessed as pathological change in kidney at 25 mg/kg, sc administered as single dose and measured at 2 hrs post-infection by H and E staining based analysis; assay type: organism-based; details: in vivo
Cell membrane [15] = assay: Disruption of cell membrane in methicillin-resistant Staphylococcus aureus assessed as PI-positive bacteria at 2 times MIC measured after 30 mins by PI staining based flow cytometry analysis (reference value: 7.49 %); assay type: subcellular
[16] = Toxicity in ICR mouse assessed as pathological change in spleen at 25 mg/kg, sc administered as single dose and measured at 2 hrs post-infection by H and E staining based analysis; assay type: organism-based; details: in vivo
Cell membrane [17] = assay: Disruption of cell membrane in methicillin-resistant Staphylococcus aureus at 8 times MIC measured after 4 hrs by scanning electron microscopic analysis; assay type: subcellular
[18] = Toxicity in ICR mouse assessed as pathological change in lung at 25 mg/kg, sc administered as single dose and measured at 2 hrs post-infection by H and E staining based analysis; assay type: organism-based; details: in vivo
Staphylococcus aureus [19] = assay: Antibacterial activity against methicillin-resistant Staphylococcus aureus infected in ICR mouse model of subcutaneous abscess assessed as reduction in IL-6 level at 25 mg/kg, sc measured at 48 hrs post-injection by ELISA method; assay type: functional, organism-based
Escherichia coli [20] = assay: Antimicrobial activity against Escherichia coli ATCC 25922 measured after 5 to 25 passages at sub-MIC incubated for 12 hrs; assay type: functional, organism-based
Staphylococcus aureus [21] = assay: Antimicrobial activity against Methicillin-resistant Staphylococcus aureus ATCC 33591 measured after 5 to 25 passages at sub-MIC incubated for 12 hrs; assay type: functional, organism-based
[22] = Toxicity in ICR mouse assessed as compatible skin at 25 mg/kg, sc administered as single dose and measured at 2 hrs post-infection by H and E staining based analysis; assay type: organism-based; details: in vivo
Staphylococcus aureus [23] = assay: Antimicrobial activity against Methicillin-resistant Staphylococcus aureus assessed as reduction in bacterial growth at 4 times MIC measured after 8 hrs by time-kill kinetics assay relative to control; assay type: functional; design: scale not given: the % may be the effect or the level left
Staphylococcus aureus [24] = assay: Antibacterial activity against methicillin-resistant Staphylococcus aureus infected in ICR mouse model of subcutaneous abscess assessed as bacterial load at 25 mg/kg, sc measured at 48 hrs post-injection; assay type: functional
[25] = Toxicity in ICR mouse assessed as pathological change in liver at 25 mg/kg, sc administered as single dose and measured at 2 hrs post-infection by H and E staining based analysis; assay type: organism-based; details: in vivo
Staphylococcus aureus [26] = assay: Antimicrobial activity against Methicillin-resistant Staphylococcus aureus assessed as reduction in bacterial load at 4 times MIC measured after 4 hrs by time-kill kinetics assay; assay type: functional
[27] = Toxicity in ICR mouse assessed as pathological change in heart at 25 mg/kg, sc administered as single dose and measured at 2 hrs post-infection by H and E staining based analysis; assay type: organism-based; details: in vivo
Mus musculus [28] = assay: Anti-inflammatory activity against subcutaneous abscess ICR mouse model infected with methicillin-resistant Staphylococcus aureus assessed as reduction in IL-6 level at 25 mg/kg, sc measured at 48 hrs post-injection by ELISA method; assay type: functional, organism-based
Staphylococcus aureus [29] = assay: Antibacterial activity against methicillin-resistant Staphylococcus aureus infected in ICR mouse model of subcutaneous abscess assessed as effect on lesions at 25 mg/kg, sc measured at 48 hrs post-injection; assay type: functional, organism-based
Cell membrane [30] = assay: Disruption of cell membrane in methicillin-resistant Staphylococcus aureus assessed as PI-positive bacteria at 4 times MIC measured after 30 mins by PI staining based flow cytometry analysis (reference value: 7.49 %); assay type: subcellular
[31] = Toxicity in ICR mouse assessed as pathological change in skin at 25 mg/kg, sc administered as single dose and measured at 2 hrs post-infection by H and E staining based analysis; assay type: organism-based; details: in vivo
Staphylococcus aureus [32] = assay: Antibacterial activity against methicillin-resistant Staphylococcus aureus infected in ICR mouse model of subcutaneous abscess assessed as bacterial elimation at 25 mg/kg, sc measured at 48 hrs post-injection relative to control; assay type: functional

SMILES | MIC (Acinetobacter baumannii) [µg/mL] | Activity [1] | MIC (Staphylococcus aureus [2]) [µg/mL] | MIC (Enterococcus faecalis) [µg/mL] | MIC (Pseudomonas aeruginosa) [µg/mL] | MIC (Enterococcus gallinarum) [µg/mL] | Activity (L929 [3]) | MIC (Staphylococcus aureus [4]) [µg/mL] | MIC (Escherichia coli [5]) [µg/mL] | Activity (Cell membrane [6]) [%] | Activity [7] | Activity (L929 [8]) | Activity (Cell membrane [11]) | Activity (Mus musculus [12]) | Activity (Staphylococcus aureus [13]) | other results
CCCCCCCCCCCCNC(=O)[C@H](CCCCN)NC(=O)[C@H](CCCCN)NC(=O)[C@H](CCCCN)NC(=O)[C@H](CO)NC(=O)CCC(=O)N1CCN(c2cc3c(cc2F)c(=O)c(C(=O)O)cn3C2CC2)CC1 ({X1-Suc}-SKKK-{NH(CH2)11CH3}) | 12.5 (≈ 11.7 µM) | Toxic | 6.25 (≈ 5.84 µM) | 25 (≈ 23.4 µM) | 50 (≈ 46.7 µM) | 25 (≈ 23.4 µM) | Toxic | 12.5 (≈ 11.7 µM) | 25 (≈ 23.4 µM) |  |  |  |  |  |  | 
CC(C)CCCCC(=O)N[C@@H](CCN)C(=O)N[C@H](C(=O)N[C@@H](CCN)C(=O)N[C@H]1CCNC(=O)[C@H]([C@@H](C)O)NC(=O)[C@H](CCN)NC(=O)[C@H](CCN)NC(=O)[C@H](CC(C)C)NC(=O)[C@@H](Cc2ccccc2)NC(=O)[C@@H](CCN)NC1=O)[C@@H](C)O.CC[C@H](C)CCCCC(=O)N[C@@H](CCN)C(=O)N[C@H](C(=O)N[C@@H](CCN)C(=O)N[C@H]1CCNC(=O)[C@H]([C@@H](C)O)NC(=O)[C@H](CCN)NC(=O)[C@H](CCN)NC(=O)[C@H](CC(C)C)NC(=O)[C@@H](Cc2ccccc2)NC(=O)[C@@H](CCN)NC1=O)[C@@H](C)O (X2-[Dab]T[Dab][Dab][dDab][dF]L[Dab][Dab]T; lactam 4-C) |  |  |  |  |  |  |  |  |  | 57.2 |  |  |  |  |  | 
NCCCC[C@H](NC(=O)c1ccc(C(=O)N2CCN(c3cc4c(cc3F)c(=O)c(C(=O)O)cn4C3CC3)CC2)cc1)C(=O)N[C@@H](CCCCN)C(=O)N[C@@H](CCCCN)C(=O)NCc1ccc(-c2ccccc2)cc1 | 25 (≈ 24.3 µM) |  | 1.56 (≈ 1.52 µM) | 50 (≈ 48.6 µM) | 25 (≈ 24.3 µM) | 50 (≈ 48.6 µM) |  | 6.25 (≈ 6.07 µM) | 25 (≈ 24.3 µM) |  | Non-toxic |  |  |  |  | 
O=C(O)c1cn(C2CC2)c2cc(N3CCNCC3)c(F)cc2c1=O [CIPROFLOXACIN] |  |  |  |  |  |  |  |  |  | 9.46 |  | Non-toxic | inactive | Active | Active; Partial Reduction In Inflammation | Activity (Staphylococcus aureus [9]): inactive; Activity (Staphylococcus aureus [10]): inactive
CCCCCCCCCNC(=O)[C@H](CCCCN)NC(=O)[C@H](CCCNC(=N)N)NC(=O)[C@H](CCCCN)NC(=O)c1ccc(C(=O)N2CCN(c3cc4c(cc3F)c(=O)c(C(=O)O)cn4C3CC3)CC2)cc1 | 6.25 (≈ 6.14 µM) |  | 1.56 (≈ 1.53 µM) | 12.5 (≈ 12.3 µM) | 3.12 (≈ 3.07 µM) | 12.5 (≈ 12.3 µM) |  | 6.25 (≈ 6.14 µM) | 3.12 (≈ 3.07 µM) | 58.4 | Non-toxic | Non-toxic | Active | Active | Active | Activity [14]: Non-toxic; Activity (Cell membrane [15]): 12%; Activity [16]: Non-toxic; Activity (Cell membrane [17]): Active; Activity [18]: Non-toxic; Activity (Staphylococcus aureus [19]): Active; Activity (Escherichia coli [20]): Active; Activity (Staphylococcus aureus [21]): Active; Activity [22]: Non-toxic; Activity (Staphylococcus aureus [23]): 100%; Activity (Staphylococcus aureus [24]): 4.4 log10CFU/ml; Activity [25]: Non-toxic; Activity (Staphylococcus aureus [26]): 3.6 log10CFU/ml; Activity [27]: Non-toxic; Activity (Mus musculus [28]): Active; Activity (Staphylococcus aureus [29]): Active; Activity (Cell membrane [30]): 26.8%; Activity [31]: Non-toxic; Activity (Staphylococcus aureus [32]): 99.99%
CCCCCCCCCCCCNC(=O)[C@H](CCCCN)NC(=O)[C@H](CCCCN)NC(=O)[C@H](CCCCN)NC(=O)CCCCCCCCCCCNC(=O)CCC(=O)N1CCN(c2cc3c(cc2F)c(=O)c(C(=O)O)cn3C2CC2)CC1 | 6.25 (≈ 5.29 µM) | Toxic | 3.12 (≈ 2.65 µM) | 12.5 (≈ 10.6 µM) | 6.25 (≈ 5.29 µM) | 6.25 (≈ 5.29 µM) | Toxic | 6.25 (≈ 5.29 µM) | 12.5 (≈ 10.6 µM) |  |  |  |  |  |  | 
